“And” between values parts separate entries of the source, which are not always exact repeats. Equal values may be shown once.
Key:
[1] = tested on: chronic myocardial infarct (MI); assay: cardiac PET imaging in control and chronic myocardial infarct rabbits; format: in vivo; details: MI rabbit, images 20-30 min after injection
From the text: Male New Zealand rabbits (body weight 2.5-3.5 kg) were purchased from Harlan (Oakwood, Mich.) and maintained in the AAALAC-accredited Animal Care Facility at Lantheus Medical Imaging. The study protocol was approved by the Institutional Animal Care and Use Committee. The procedure of developing a rabbit model of myocardial infarction (MI) was similar to the method described previously (Fujita M, Morimoto Y, Ishihara M, Shimizu M, Takase B, Maehara T et al. A new rabbit model of myocardial infarction without endotracheal intubation. J Surg Res 2004; 116:124-8). Briefly, the rabbit was anesthetized with ketamine (40 mg/Kg, im) and xylazine (9 mg/Kg, im) and placed in a supine position. The surgery was performed under aseptic conditions. A mid-sternotomy was performed carefully to avoid injury of parietal pleura. The pericardial sac was exposed and incised. […]
PET images and cardiovascular parameters were evaluated in both normal and MI rabbits. […] In addition, electrocardiogram (ECG) was also recorded with 3 non-invasive limb leads in lead II configuration using the BIOPAC system. […] After a stabilization period, cardiovascular parameters: MAP, SBP, DBP and ECG, were recorded 5 minutes before imaging agent 1 intravenous injection (˜1.5 mCi) and the recording continued for additional 20 minutes post-injection. […]

[2] = syringe adsorption of imaging agent 1; format: physicochemical; details: three hours, ambient temperature
Experimental: The two sets of filled syringes were maintained at ambient temperature and humidity for a period of three hours, at which time the contents were injected into a clean 5 cc glass vial; a consistent volume of imaging agent 1 (0.1 mL) remained in the hub of each syringe. The total radioactivity content of both the vial and syringe were measured, decay corrected and the percent retention calculated. The difference in percent retained activity is statistically significant at the 95% confidence level (i.e. Prob>|t| 0.0005).

[3] = early elimination of ^18F in urine; format: in vivo, human
Experimental: Urine collected pre-dose (Baseline), and all voids up to 8 hours post-dose were collected and assayed for ^18F. However, as in blood collection, the urine collection terminated near the 7-hour minimum specified in the protocol. Mean urinary excretion over the approximate 7-hour void interval was 4.83% ID with a % CV of 64.7 and a range of 0.64% ID to 12.41% ID. This finding is in reasonable agreement with cumulative urine excretion of 5% as measured with PET imaging.

With `CC(C)(C)n1ncc(OCc2ccc(COCC[18F])cc2)c(Cl)c1=O` [imaging agent 1, 2-t-butyl-4-chloro-5-[4-(2-(^18F)fluoroethoxymethyl)-benzyloxy]-2H-pyridazin-3-1] the “perfusion defect area in the left ventricular wall” value [1] was “clearly detected”, the “Retained Activity in syringe” value ([2]; B&D (Becton & Dickinson) three-component syringe) was 35.2% and 38.9% and 32.4% and the “Retained Activity in syringe” value ([2]; HSW (Henke Sass Wolf) two-component syringe) was 11.3% and 7.0% and 5.1%. The Mean urinary excretion ([3]; approximate 7-hour void interval) was 4.83 % ID and the “cumulative urine excretion as measured with PET imaging” value ([3]; in vivo) was 5%.
